The target in experiment [1] is Norepinephrine transporter (Rattus norvegicus, UniProt Q9WTR4). Briefly: Displacement of [3H]nisoxetine from NET in Sprague-Dawley rat brain. The class given is tissue-based.
The species entered for experiment [2] is Rattus norvegicus. The experiment is described as follows: Selectivity for Sprague-Dawley rat DAT over rat M1 receptor.
In experiment [3] the target is Sodium-dependent serotonin transporter (Rattus norvegicus, UniProt P31652). Briefly: Displacement of [3H]citalopram from SERT in Sprague-Dawley rat brain. It is filed as tissue-based. For orientation: Loss of bound radioactivity is the signal in a displacement assay; it reports binding, not function.
Sodium-dependent serotonin transporter, sequence (P31652 whole entry): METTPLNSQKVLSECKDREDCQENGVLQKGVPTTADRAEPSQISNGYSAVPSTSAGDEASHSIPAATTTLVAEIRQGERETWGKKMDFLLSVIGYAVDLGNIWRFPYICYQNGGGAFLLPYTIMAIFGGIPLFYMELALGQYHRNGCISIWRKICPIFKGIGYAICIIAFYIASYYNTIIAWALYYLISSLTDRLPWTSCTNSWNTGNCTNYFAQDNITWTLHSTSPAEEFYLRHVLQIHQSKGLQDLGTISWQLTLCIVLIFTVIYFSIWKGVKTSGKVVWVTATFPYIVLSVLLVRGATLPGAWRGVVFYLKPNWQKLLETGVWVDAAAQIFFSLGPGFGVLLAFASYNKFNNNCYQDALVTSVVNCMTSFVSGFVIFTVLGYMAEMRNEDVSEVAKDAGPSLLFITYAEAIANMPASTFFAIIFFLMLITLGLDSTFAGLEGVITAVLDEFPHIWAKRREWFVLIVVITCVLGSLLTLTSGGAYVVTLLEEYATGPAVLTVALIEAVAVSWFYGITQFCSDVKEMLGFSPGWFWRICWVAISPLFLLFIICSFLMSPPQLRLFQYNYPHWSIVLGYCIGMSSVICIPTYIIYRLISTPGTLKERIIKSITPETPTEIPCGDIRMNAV
For experiment [4], the target named is T1, Muscarinic acetylcholine receptor M1 (Rattus norvegicus, UniProt P08482).
T1 sequence (P08482 whole entry): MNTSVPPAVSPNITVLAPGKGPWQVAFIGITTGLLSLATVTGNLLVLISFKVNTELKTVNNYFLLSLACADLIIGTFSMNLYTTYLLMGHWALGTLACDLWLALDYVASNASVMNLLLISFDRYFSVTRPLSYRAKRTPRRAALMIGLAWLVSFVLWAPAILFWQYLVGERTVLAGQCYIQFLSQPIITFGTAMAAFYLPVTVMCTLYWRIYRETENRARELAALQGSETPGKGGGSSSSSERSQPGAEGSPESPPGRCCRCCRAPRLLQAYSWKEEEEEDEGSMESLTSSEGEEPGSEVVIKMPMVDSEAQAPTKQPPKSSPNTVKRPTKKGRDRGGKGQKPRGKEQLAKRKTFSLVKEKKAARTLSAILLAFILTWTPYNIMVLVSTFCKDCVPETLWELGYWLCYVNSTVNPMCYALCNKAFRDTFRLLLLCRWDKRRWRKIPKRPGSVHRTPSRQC
The experiment is described as follows: Displacement of [3H]pirenzepine from M1 receptor in Sprague-Dawley rat brain.

The target of experiment [5] is T2, Sodium-dependent dopamine transporter (Rattus norvegicus, UniProt P23977). Briefly: biochemical. It is filed as tissue-based, Sprague-Dawley, Brain.
T2 sequence (P23977 whole entry): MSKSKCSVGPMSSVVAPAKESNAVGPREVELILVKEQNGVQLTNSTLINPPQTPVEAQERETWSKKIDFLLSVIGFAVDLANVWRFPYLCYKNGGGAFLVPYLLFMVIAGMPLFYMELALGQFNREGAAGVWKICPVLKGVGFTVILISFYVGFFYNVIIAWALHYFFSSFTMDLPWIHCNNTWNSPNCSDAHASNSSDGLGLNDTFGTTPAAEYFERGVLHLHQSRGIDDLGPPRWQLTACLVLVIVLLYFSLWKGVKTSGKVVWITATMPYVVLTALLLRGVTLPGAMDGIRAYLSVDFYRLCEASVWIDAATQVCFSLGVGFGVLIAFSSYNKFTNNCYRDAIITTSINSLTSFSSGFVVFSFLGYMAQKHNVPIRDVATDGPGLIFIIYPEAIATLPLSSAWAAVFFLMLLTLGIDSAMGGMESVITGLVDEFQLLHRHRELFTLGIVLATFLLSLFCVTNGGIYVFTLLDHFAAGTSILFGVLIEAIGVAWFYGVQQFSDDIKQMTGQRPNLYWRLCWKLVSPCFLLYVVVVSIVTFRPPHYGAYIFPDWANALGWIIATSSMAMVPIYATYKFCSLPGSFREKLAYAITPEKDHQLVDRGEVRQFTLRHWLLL
Description: Displacement of [3H]WIN-35428 from DAT in Sprague-Dawley rat brain
The target of experiment [6] is T2, Sodium-dependent dopamine transporter. The experiment is described as follows: Inhibition of [3H]dopamine uptake at DAT in Sprague-Dawley rat brain.
Experiment [7] is filed under the species Rattus norvegicus. Briefly: Drug discriminative activity in Sprague-Dawley rat measured as response on cocaine-appropriate lever. It is filed as functional.

Active and inactive are the calls of the source. The rule behind the calls is not given here.

Norepinephrine transporter, sequence (Q9WTR4 whole entry): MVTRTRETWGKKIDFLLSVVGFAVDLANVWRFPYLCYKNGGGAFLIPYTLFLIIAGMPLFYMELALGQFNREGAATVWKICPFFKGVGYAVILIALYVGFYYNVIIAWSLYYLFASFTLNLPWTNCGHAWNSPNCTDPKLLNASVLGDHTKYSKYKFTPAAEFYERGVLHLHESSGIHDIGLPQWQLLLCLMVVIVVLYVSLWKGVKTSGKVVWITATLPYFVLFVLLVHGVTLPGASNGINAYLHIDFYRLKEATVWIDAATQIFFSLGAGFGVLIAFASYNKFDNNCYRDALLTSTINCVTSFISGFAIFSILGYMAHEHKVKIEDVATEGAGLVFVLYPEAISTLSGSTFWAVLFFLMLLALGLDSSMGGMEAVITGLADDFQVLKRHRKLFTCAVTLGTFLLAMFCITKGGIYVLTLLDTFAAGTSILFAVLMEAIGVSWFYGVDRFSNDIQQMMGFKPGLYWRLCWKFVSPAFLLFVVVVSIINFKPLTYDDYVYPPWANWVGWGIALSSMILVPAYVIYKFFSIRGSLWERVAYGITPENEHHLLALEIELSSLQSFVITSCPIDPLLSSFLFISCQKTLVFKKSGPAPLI

As for `C=C[C@@H]1C2CCC(C[C@@H]1OC(c1ccc(F)cc1)c1ccc(F)cc1)N2C` (stereo partly specified), the affinity in experiment [1], expressed as Ki, was 473 nM. Also, the Ratio Ki in experiment [2] was 90.
On to `CN1C2CCC1[C@@H](COC(=O)CCCc1ccc([N+](=O)[O-])cc1)[C@@H](OC(c1ccc(F)cc1)c1ccc(F)cc1)C2` (stereo partly specified), for which the inhibitory constant (Ki) (as a rule, a measure of affinity in units of concentration, obtained from inhibition or displacement) in experiment [1] was found to be 2130 nM; in experiment [3], 3780 nM; in experiment [4], 708 nM. Further, in experiment [2], the Ratio Ki worked out at 18.
Take `COC(=O)[C@@H]1C2CCC(C[C@@H]1OC(c1ccc(Cl)cc1)c1ccc(Cl)cc1)N2C` (stereo partly specified): the inhibitory constant (Ki) in experiment [1] is 2150 nM; in experiment [3] it was 528 nM; in experiment [4], 382 nM; in experiment [5] it was 12.6 nM. In addition, the Ratio Ki in experiment [2] is 30. Also, half-maximal inhibition in experiment [6] (IC50) was put at 2.46 nM.
In experiment [1], `CCCCN1C2CCC1[C@@H](C(=O)OCC)[C@@H](OC(c1ccc(F)cc1)c1ccc(F)cc1)C2` (stereo partly specified) had an inhibitory constant (Ki) of 580 nM. In experiment [2], the Ratio Ki is 391.
With `COC(=O)C1C(OC(c2ccc(Cl)cc2)c2ccc(Cl)cc2)CC2CCC1N2C` (racemic), the outcome in experiment [7] was inactive.
`CCOC(=O)[C@@H]1C2CCC(C[C@@H]1OC(c1ccc(Cl)cc1)c1ccc(Cl)cc1)N2C` (stereo partly specified): the Ki in experiment [1] came out at 3350 nM; in experiment [3], 1560 nM; in experiment [4], 3060 nM; in experiment [5], 14.6 nM. Besides, in experiment [6], half-maximal inhibition (IC50) was put at 1.52 nM.
`CN1C2CCC1[C@@H](COC(=O)CCCc1ccc(N)cc1)[C@@H](OC(c1ccc(F)cc1)c1ccc(F)cc1)C2` (stereo partly specified): the affinity in experiment [1] corresponds to a Ki of 440 nM. Besides, the Ratio Ki in experiment [2] turned out to be 12.
Turning to `CCOC(=O)[C@@H]1C2CCC(C[C@@H]1OC(c1ccc(F)cc1)c1ccc(F)cc1)N2` (stereo partly specified), the inhibition constant (Ki) in experiment [1] was found to be 563 nM. Also, in experiment [2], the Ratio Ki came to 1930.
Turning to `CCOC(=O)[C@@H]1C2CCC(C[C@@H]1OC(c1ccc(F)cc1)c1ccc(F)cc1)N2C` (stereo partly specified), the Ratio Ki in experiment [2] amounted to 275.
In the case of `CN1C2CCC1[C@@H](CO)[C@@H](OC(c1ccc(F)cc1)c1ccc(F)cc1)C2` (stereo partly specified), the Ki was determined as 983 nM in experiment [1] and 3.4 nM in experiment [5]. Further, the Ratio Ki in experiment [2] is 31.
`C=CCN1C2CCC1[C@@H](C(=O)OCC)[C@@H](OC(c1ccc(F)cc1)c1ccc(F)cc1)C2` (stereo partly specified) showed a Ki in experiment [1] of 935 nM. For the same molecule, the Ratio Ki in experiment [2] was 1040.
With `COC(=O)CC[C@@H]1C2CCC(C[C@@H]1OC(c1ccc(F)cc1)c1ccc(F)cc1)N2C` (stereo partly specified), the inhibitory constant (Ki) in experiment [1] stood at 454 nM. For the same molecule, the Ratio Ki in experiment [2] is 832.
Take `COC(=O)[C@@H]1C2CCC(C[C@@H]1OC(c1ccc(F)cc1)c1ccc(F)cc1)N2C` (stereo partly specified): the Ratio Ki in experiment [2] was found to be 45.
Molecule `CN1C2CCC1CC(OC(c1ccc(F)cc1)c1ccc(F)cc1)C2` (stereo unspecified) [DIFLUOROBENZTROPINE] showed an Activity in experiment [7] of 65%.
With `COC(=O)/C=C/[C@@H]1C2CCC(C[C@@H]1OC(c1ccc(F)cc1)c1ccc(F)cc1)N2C` (stereo partly specified), the inhibitory constant (Ki) in experiment [1] is 269 nM. Besides, in experiment [2], the Ratio Ki was 294.
